The numbers were not newly measured in patent US20240082176A1 (Productos Farmaceuticos, S.A. DE C.V., priority 2017, published 2024), which cites them from elsewhere.

The conditions of series [1]: in vivo.
Series [2] relates to citric acid-induced cough.
The conditions of series [3]: in vivo. This is another data set of the same source.

Turning to `OC[C@@H](O)CN1CCN(c2ccccc2)CC1` [levodropropizine], the oral bioavailability result (estimated) is given as “greater than 75%”. In addition, the “half-life t1/2” value (in vivo) was 2 h. Also, in the series with plasma protein, the plasma protein binding was 11-14%.

As for `OCC(O)CN1CCN(c2ccccc2)CC1` (racemic) [dropropizine, (R, S)-3-(4-phenylpiperazin-1-yl) propane-1,2-diol], the “antitussive activity compared with codeine” value in the series on cough (vs codeine) is “comparable”. For the same compound, the “antitussive activity compared with its levo enantiomer” value with cough (vs levodropropizine) is listed as “comparable”. Also, the elimination half-life in series [1] was 4 h. Moreover, the “time after administration at which cough suppression is reached” value in series [2] (after the administration of the drug) is 1 h. Besides, the “period for which the antitussive effect persists” value in series [2] (human, in vivo) was 6 h.

Consider `Nc1c(Br)cc(Br)cc1CN[C@H]1CC[C@H](O)CC1` [ambroxol, trans-4-[(2-amino-3,5-dibromophenyl)methylamino] cyclohexane-1-ol], for which, in series [3], the “renal clearance as share of total clearance” value was 8% and the terminal elimination half-life was 10 h.
